The results in this text go back to US9295630B2, “Vitamin C complexes” (CENTRE NATIONAL DE LA RECHERCHE SCIENTIFIQUE, priority 2012, dated 2016).

Where two headings read alike, the source gives them in different places.

Holding throughout (type): cell-based
The test system of one data set is acid GAGs. The data set can be described thus: Expression of acid GAGs in human skin explants (alcian blue/PAS staining). Particulars: topical, D10, relative to control No. 0. On the procedure: (§1) Explants of human skin with a diameter of about […], obtained from surgical waste from cosmetic surgery and more particularly from abdominoplasty of women about thirty years of age, are used. The human skin is kept alive in a usual nutrient medium at 37° C. in humid atmosphere, enriched with 5% CO2, for ten days.
(§2) The explants of human skin are treated using a gel according to the invention comprising the VitC-SQ complex or conjugate according to the invention obtained in example 1a formulated in squalene as described in example 3 to obtain compositions comprising 1 wt % and 3 wt % respectively, expressed as weight of vitamin C active ingredient relative to the total weight of the composition. To obtain values of 1% and 3% respectively, expressed as weight of vitamin C, the concentration of the VitC-SQ complex is adjusted accordingly.
(§3) These two active ingredients are used at a concentration of 1 wt % and 3 wt %, expressed as weight of vitamin C active ingredient relative to the total weight of the composition.
(§4) Each of the compositions tested is applied topically, at a rate of 2 mg per explant, on the explants of human skin using a spatula on day zero (DO), then at 1 day (D1), at 3 days (D3), at 6 days (D6) and finally at 8 days (D8).
(§5) On the tenth day, the explants treated with each of the compositions are taken and are submitted to the same conditions as the explants of control No. 0.
(§6) Neutral GAGs, reservoirs of the growth factors near the dermal-epidermal junction, and acid GAGs, essentially hyaluronic acid, are examined on paraffin sections after staining with alcian blue/PAS (Mowry staining)

Another data set relates to neutral GAGs. The data set can be described thus: Expression of neutral GAGs in human skin explants (alcian blue/PAS staining). To be noted: topical, D10, relative to control No. 0. On the procedure: as §1, §2, §3, §4, §5, §6
For another data set, the system named is type III collagen. The experiment in a line: Expression of type III collagen in human skin explants (immunolabeling). To be noted: gel at 3 wt % as vitamin C, topical, D10, relative to control No. 0. The protocol:
(§7) For this assessment, only certain of the explants of human skin described above are used. More particularly, they are untreated explants (control No. 0) and explants treated with VitC-SQ according to the invention at 3 wt %, with free vitamin C at 3 wt % (control No. 1) and with VitC-palm at 3 wt % (control No. 2), expressed as weight of vitamin C active ingredient relative to the total weight of the composition.
(§8) The microscopic observations are carried out in light microscopy, using a Leica microscope, type DMLB, with x 40 objective. The images were recorded with an Olympus DP72 camera, using Olympus Cell^D acquisition and archiving software.
Regarding the labeling of type III collagen, the latter is labeled on sections in paraffin (fixation with formol) with a goat anti-human collagen III polyclonal antibody (SBA ref: 1330-01), at 1/50th overnight at room temperature using a Vectastain RTU Universal VECTOR avidin/biotin amplifier system, detected in diaminobenzidine (DAB) with the nuclei counterstained with Masson's hemalum.

A further data set relates to type I collagen. The data set can be described thus: Expression of type I collagen in human skin explants (immunolabeling). To be noted: gel at 3 wt % as vitamin C, topical, D10, relative to control No. 0. On the procedure:
as §7, §8
Type I collagen is labeled on frozen sections with a rabbit anti-human collagen I antibody (Monosan ref PS047, polyclonal), at 1/800th for 1 hour at room temperature with a biotin/streptavidin amplifier system, detected by fluorescence (FITC caltag SA 1001). The nuclei were counterstained with propidium iodide.

In another data set the test system is explants of human skin. The data set can be described thus: General morphology / acanthosis of human skin explants (Masson's trichrome staining). Particulars: for dermal stimulation / epidermal stimulation: topical, D10, relative to control No. 0. The protocol:
as §1, §2, §3, §4, §5
After 48 hours of fixation in ordinary Bouin, the samples are dehydrated and impregnated with paraffin using a Leica 1020 automatic dehydrator. Then they are made into a block according to procedure MO-H-153 using a Leica EG 1160 coating station.
5-μm sections are prepared using a Minot type microtome, Leica RM 2125, and are glued on superfrost silanized glass histology slides.
Microscopic observations are performed in light microscopy, using a Leica microscope of the Orthoplan type, with x 25 and x 40 objectives. The images are recorded with a Sony DXC 390P tri CCD camera and are stored using Leica IM1000 data archiving software.
Acanthosis of the skin, and more generally observation of the general morphology is carried out on sections in paraffin after staining with Masson's trichrome, Goldner's variant, according to procedure MO-H-157.

Data set [1] has as its system CCD34SK human fibroblasts. The experiment in a line: Test of cellular viability (MTT assay). Particulars: for IC50: 4 h incubation then 48 h, read-out: IC50 (loss of 50% in cellular viability). The protocol:
10 000 cells of CCD34SK human fibroblasts per well were seeded in a 96-well plate.
The test products are added to the wells in different concentrations. After 4 h of incubation, the culture medium is replaced with new biological medium and the cells are incubated for 48h at 37° C. and 5% CO2.
Then, the culture medium is removed by inverting and 100 μL, of PBS/well with MTT at a concentration of 0.5 mg/ml is added. The plate is put back in the incubator for 2 h at 37° C. and 5% CO2. In order to dissolve the dark blue crystals of formazan that have formed, 100 μL of a solution of SDS (sodium dodecyl sulfate) is added to each well and then the plate is incubated again for 12 h at 37° C. and 5% CO2.
At the end of the 12 h, spectrophotometric measurements are carried out on an ELISA plate reader at a wavelength of 570 nm. The percentage viability of the cells in the presence of the test molecules is then calculated from the following formula: (mean OD of the treated cells—OD of control with medium only/mean OD of the control cells (100% viability)—OD of control with medium only)×100±standard deviation; or presented in the form of curves plotting the evolution of absorbance as a function of time.
The IC50 values (“inhibitory concentration 50%” or the concentration that inhibits growth of 50% of the cells) then correspond to a product concentration tested generating a loss of 50% in cellular viability (see Table below).

As to `O=C1OC(C(O)CO)C(O)=C1O` (centres unmarked) [Free vitamin C, 5-(1,2-dihydroxy-ethyl)-3,4-dihydroxy-5H-furan-2-one], the “overexpression of epidermal acid GAGs” value with acid GAGs (gel at 1 wt % as vitamin C) and in the data set on acid GAGs (gel at 3 wt % as vitamin C) was “No overexpression of epidermal acid” each time. In addition, the “overexpression of neutral GAGs” value with neutral GAGs (gel at 1 wt % as vitamin C) and in the data set with neutral GAGs (gel at 3 wt % as vitamin C) was “No overexpression of neutral GAGs” throughout. Moreover, the “expression of type III collagen” value in the data set with type III collagen is “No overexpression of type III collagen”. In addition, in the data set with type I collagen, the “expression of type I collagen” value was “No overexpression of type I collagen”. In addition, the “effect on skin explants (overall)” value in the data set on explants of human skin (dose less than or equal to 3 wt % as vitamin C) is on record as “no effect”. Besides, the dermal stimulation entry in the data set with explants of human skin (gel at 1 wt % as vitamin C) is “No dermal stimulation”; in the data set with explants of human skin (gel at 3 wt % as vitamin C), “Moderate dermal stimulation”. Also, the epidermal stimulation result with explants of human skin (gel at 1 wt % as vitamin C) and with explants of human skin (gel at 3 wt % as vitamin C) was “No epidermal stimulation” each time.
For the molecule `CC(C)=CCCC(C)=CCCC(C)=CCCC=C(C)CCC=C(C)CCC(=O)OC[C@H](O)[C@H]1OC(=O)C(O)=C1O` [VitC-SQ, 6-O-[4,8,13,17,21-pentamethyl-docosa-4,8,12,16,20-pentaenoyl] ascorbic acid], the “overexpression of epidermal acid GAGs” value in the data set on acid GAGs (gel at 1 wt % as vitamin C) was “No overexpression of the epidermal acid GAGs”; in the data set on acid GAGs (gel at 3 wt % as vitamin C), “No overexpression of epidermal acid”. In addition, the results for the “overexpression of neutral GAGs” value with neutral GAGs (gel at 1 wt % as vitamin C) and in the data set with neutral GAGs (gel at 3 wt % as vitamin C) were “Slight overexpression of neutral GAGs” and “Definite overexpression of neutral GAGs”, respectively. In the data set with type III collagen, the “expression of type III collagen” value was “Slight overexpression of type III collagen”. Moreover, the “expression of type I collagen” value in the data set with type I collagen is recorded as “Slight underexpression of type I collagen”. In data set [1], the “toxicity relative to VitC-palm” value was “half as toxic as VitC-palm”. Further, in data set [1] (Fibroblast), the IC50 – broadly, the concentration that inhibits the measured activity by half – was found to be 600 µM. Besides, the “dermal and epidermal stimulation compared with VitC-Palm” value with explants of human skin (at equivalent dose of vitamin C) is given as “greater than VitC-Palm”. For the same molecule, the figures for the dermal stimulation result in the data set with explants of human skin (gel at 1 wt % as vitamin C) and in the data set with explants of human skin (gel at 3 wt % as vitamin C) were “Moderate dermal stimulation” and “Fairly definite dermal stimulation”, respectively. In addition, the epidermal stimulation result in the data set with explants of human skin (gel at 1 wt % as vitamin C) is “Slight epidermal stimulation”; with explants of human skin (gel at 3 wt % as vitamin C), “Definite epidermal stimulation”.
For the molecule `CCCCCCCCCCCCCCCC(=O)OC[C@H](O)[C@H]1OC(=O)C(O)=C1O` [VitC-palm, 6-ascorbyl palmitate], the “overexpression of epidermal acid GAGs” value in the data set on acid GAGs (gel at 1 wt % as vitamin C) and with acid GAGs (gel at 3 wt % as vitamin C) was “No overexpression of epidermal acid” in each case. Moreover, the “overexpression of neutral GAGs” value in the data set on neutral GAGs (gel at 1 wt % as vitamin C) is listed as “Slight overexpression of neutral GAGs”; in the data set with neutral GAGs (gel at 3 wt % as vitamin C) it was “Very moderate overexpression of neutral”. Also, the “expression of type III collagen” value with type III collagen is “Very slight overexpression of type III”. In the data set with type I collagen, the “expression of type I collagen” value is listed as “No overexpression of type I collagen”. Besides, the IC50 in data set [1] was 250 µM. Moreover, the dermal stimulation entry is recorded as “No dermal stimulation” in the data set with explants of human skin (gel at 1 wt % as vitamin C) and “Moderate dermal stimulation” in the data set with explants of human skin (gel at 3 wt % as vitamin C). The epidermal stimulation entry in the data set on explants of human skin (gel at 1 wt % as vitamin C) and in the data set on explants of human skin (gel at 3 wt % as vitamin C) was “No epidermal stimulation” throughout.
